# In paper PMC9814544 (Communications Chemistry, 2020):
# What was measured:
# LOX129 = system: T1, LOX129; experiment: STD-NMR binding, LOX129; design: species or system human; settings: 5 µM LOX129, 250 µM compound; n = 1
# T1 construct: 6His-tag with thrombin cleavage site (N, cleaved yes); made in house; host or cells: E. coli SHuffle cells (New England BioLabs), pET28a
# Method: Selected cluster representatives were analyzed by multiple biophysical methods to further validate and characterize the identified compounds.
# STD NMR binding experiments[51] were performed in 2.5 mm NMR tubes on a Bruker AVII+ 600 MHz spectrometer equipped with a 5 mm cryo-TCI probe and z-gradients. 5 μM LOX129 was incubated with 250 μM BI-0115 in 25 mM Na-phosphate, 100 mM NaCl pH 7.5 in D2O at 298 K and a total d6-DMSO concentration of 1%. The on- and off-resonance spectra were recorded in an interleaved fashion with 256 transients, respectively. Saturation was achieved by irradiation with a Gaussian pulse train for 3 s at resonance frequencies of 100 Hz and 20 kHz, respectively. Residual protein signals were suppressed by employing a 30 ms spin lock pulse prior to acquisition. Water suppression was achieved by a WATERGATE sequence employing a double gradient echo[53]. The signal intensity in the saturation transfer difference spectrum was normalized by the following equation to yield the %STD value: %STD = 100 * (((I(0)-I(sat))/I(0))), where I(0) is the intensity of one signal in the off-resonance and I(sat) the intensity of one signal in the on-resonance spectrum, respectively. Topspin 3.0 (Bruker Biospin) was used to process and analyze data.
# LOX129 (LOX-1) = system: T2, LOX129 (LOX-1); experiment: Native ESI-MS of LOX-1 with ligand; format: binding, human; settings: Vc = 60V; up to 10 eq ligand
# T2 construct: 6His-tag with thrombin cleavage site (N, cleaved yes); made in house; host or cells: E. coli SHuffle cells (New England BioLabs), pET28a
# Method: This is in agreement with the biophysical data obtained so far. The ITC measurements gave a stoichiometry of protein:ligand of 1.8 which fits to multiples of a 2:1 complex. To confirm that the crystallographically observed tetrameric arrangement exists also in solution native Electrospray-Ionization Mass Spectrometry (ESI-MS) analysis was used. A MS experiment using covalent dimeric LOX129 under denaturing conditions was performed giving a mass of 33773 Da, corresponding to a mass difference of 13 Da to the theoretical molecular weight of 33786 Da (Supplementary Fig. 9). This mass difference corresponds to the three intramolecular and the one intermolecular disulfide bonds (14 Da). MS analysis under non denaturing conditions (Fig. 4a) measured LOX129 mainly as a dimer. Only traces of the tetrameric state were detectable. A binding experiment of BI-0115 to LOX-1 was performed using soft MS tuning parameters (Vc = 40V) in order to maintain BI-0115 interactions in the gas phase.
# Mass spectrometry experiments were carried out on an electrospray time-of-flight mass spectrometer (LCT, Waters, Manchester, UK) equipped with an automated chip-based nanoESI device (Triversa Nanomate, Advion Biosciences, Ithaca, NY). […]
structure (smiles),measurement,setting,value
CCCN1C(=O)c2ccc(Cl)cc2Nc2ncccc21 [BI-0115],STD-NMR,LOX129,binding
same,"ligand induced tetramerization, increase of the 16+ charge state",LOX129 (LOX-1),up to 33%
